Measurements: patent US20140121240A1, “NOVEL PHARMACEUTICAL COMPOSITION” (MARUHO CO., LTD., priority 2011, published 2014)
Marks after values point to notes of the source that are not given here.

Experiments:
[1] = system: oxazolone-induced inflammatory reactions of right ear auricle; assay: Chronic oxazolone-induced dermatitis model: ear auricle thickness (Experiment 4); assay type: in vivo, mouse; details: Compound A 1%, Tacrolimus 0.1%, Dexamethasone 0.01% w/v in 0.25% oxazolone
Description: (§1) [Antipruritic Effect of Test Compound in Chronic Oxazolone-Induced Dermatitis Model]
(§2) A magnet for measurement was implanted into an instep part of right hindlimb of BALB/c male mouse (fed for one week from five-week old; Charles River Laboratories, Japan Inc.) under anesthesia, and on the same day, sensitization was carried out by topically administering 0.5% w/v solution (10 μL) of oxazolone in acetone respectively onto the both sides of right ear auricle of the animal (sensitization day). On each point of the 7th, 9th, 11th, 14th and 16th day reckoned from the day after the sensitization (1st day), each mouse was challenged by topical administration of a 10 μL solution of test compound [acetone (vehicle-treated group), 0.25% w/v solution of oxazolone in acetone (oxazolone-treated group), or a test compound solubilized in 0.25% w/v oxazolone solution in acetone (test compound-treated group)] onto the both sides of right ear auricle of the animal to produce inflammatory reactions. Immediately after the administration, scratching behavior (counts of scratching) was measured for two hours by MicroAct. Thickness of right ear auricle of each mouse was measured by a thickness gauge before and 24 hours after the topical administration of each test compound solution. The percentage described in the Table means “% w/v”.

[2] = system: pruritogen-induced scratching behavior; assay: Antipruritic effect on pruritogen-induced scratching model (Experiment 1); assay type: in vivo, mouse; details: for Counts of scratching (Mean): 3% w/v in acetone 50 μL topical 1 h before, ICR female mouse
Text: [Antipruritic Effect of Test Compound on Pruritogen-Induced Scratching Model]
For the purpose of measuring scratching behavior (counts of scratching), a cylindrical magnet (diameter: 1 mm, length: 3 mm) was implanted into instep of right hindlimb of each mouse (ICR female mouse, 6 weeks old; Charles River Laboratories, Japan Inc.) under anesthesia at least three days before testing, and hair on her right dorsal neck was removed by a shaver under anesthesia the day before testing. After topical administration of a solution of test compound in acetone (3% w/v solution of 1-[2-(4S)-4-hydroxy-1,2,3,4-tetrahydroquinolin-1-yl]-4-pyridyl]-2,3-bis(dihydroxymethyl)-6,7-dimethoxynaphthalene sesquihydrate, as hereinafter referred to as Compound A, in acetone; 50 μL) or a vehicle (acetone; 50 μL) to the right dorsal neck of the above-treated mouse, these mice were placed into a testing apparatus (MicroAct, Neuroscience Inc.). After one hour of the administration of the above-mentioned solution, to the right dorsal neck of each mouse was intradermally administered a solution (50 μL) of a pruritogen in saline [histamine: 300 nmol/50 μL, U-46619 (chemical name: 9,11-dideoxy-9α,11α-methanoepoxyprosta-5Z,13E-dien-1-oic acid, Cayman Chemical Company): 10 nmol/50 μL, Compound 48/80 (Sigma): 3 μg/50 μL, serotonin (Sigma): 100 nmol/50 μL, or Substance P (Peptide Institute Inc.): 300 nmol/50 μL] or saline. Immediately after the administration, scratching behavior (counts of scratching) was measured for 30 minutes by MicroAct.

[3] = system: oxazolone-induced scratching behavior; assay: Chronic oxazolone-induced dermatitis model: scratching behavior (Experiment 4); assay type: in vivo, mouse; details: for Counts of scratching (Mean ± standard error): Compound A 1%, Tacrolimus 0.1%, Dexamethasone 0.01% w/v in 0.25% oxazolone
Description: as §1, §2

[4] = system: histamine-induced scratching behavior; assay: Antipruritic effect in histamine-induced scratching model (Experiment 2); assay type: in vivo, mouse
Description: [Antipruritic Effect of Test Compound in Histamine-Induced Scratching Model]
After topical administration of a 3% w/v solution of a test compound or a reference compound as described in the following Table 6 in acetone (50 μL) or a vehicle (acetone; 50 μL) onto right dorsal neck of ICR female mice similarly pre-treated as described in Experiment 1, these animals were placed into a testing apparatus (MicroAct). After one hour of the administration of said compound solution or vehicle, a solution (50 μL) of histamine in saline (300 nmol/50 μL) or saline (50 μL) was intradermally administered to right dorsal neck of each mouse. Immediately after the administration, scratching behavior (counts of scratching) was measured for 30 minutes by MicroAct.
Inhibition rate on scratching behavior of each test compound was evaluated in terms of the following formula based on the counts of scratching in the test group in which each test compound solution was administered followed by administration of a histamine solution in saline (counts of scratching in compound-treated group), and the counts of scratching in the test group in which a vehicle (acetone) was administered followed by administration of a histamine solution in saline (counts of scratching in vehicle-treated group).
(§3) Ratio of inhibition rate on scratching behavior of each test compound to that of Compound A was calculated as antipruritic activity (%). For reference, PDE4 inhibitory activity of each compound (IC50) which was measured by a conventional manner is also shown in such Table.

[5] = system: PDE4; assay: PDE4 inhibitory activity measured by a conventional manner; assay type: biochemical
Description: as §3

[6] = system: spontaneous locomotor activity; assay: Effect on spontaneous locomotor activity (Experiment 3 (2)); assay type: in vivo, mouse; details: for Spontaneous locomotor activity (Mean): measured from 1 h after administration
Description: (2) [Effect of Test Compound on Spontaneous Locomotor Activity] The same solution (50 μL) of test compound or a vehicle (50 μL) as described in the above-mentioned (1) was administered onto right dorsal neck of ICR female mice similarly pre-treated as described in Experiment 1. After one hour of the administration of the test compound solution or vehicle, these animals were placed into an apparatus for measuring spontaneous locomotor activity (SCANET, Melquest Ltd.), and their locomotor activity was measured for 30 minutes.

COc1cc2cc(CO)c(CO)c(-c3ccnc(N4CC[C@H](O)c5ccccc54)c3)c2cc1OC [Compound A, 1-[2-(4S)-4-hydroxy-1,2,3,4-tetrahydroquinolin-1-yl]-4-pyridyl]-2,3-bis(dihydroxymethyl)-6,7-dimethoxynaphthalene sesquihydrate]
Ear auricle thickness (Mean) ([1]; 7th day): 0.35 mm | Ear auricle thickness (Mean) ([1]; 8th day): 0.44** mm | Ear auricle thickness (Mean) ([1]; 9th day): 0.39** mm | Ear auricle thickness (Mean) ([1]; 10th day): 0.46** mm | Ear auricle thickness (Mean) ([1]; 11th day): 0.44** mm | Ear auricle thickness (Mean) ([1]; 12th day): 0.48** mm | Ear auricle thickness (Mean) ([1]; 14th day): 0.44** mm | Ear auricle thickness (Mean) ([1]; 15th day): 0.54** mm | Ear auricle thickness (Mean) ([1]; 16th day): 0.47** mm | Ear auricle thickness (Mean) ([1]; 17th day): 0.50** mm | Ear auricle thickness (Mean) ([1]; sensitization day, BALB/c male mouse): 0.27 mm | pruritogen-induced scratching behavior (counts of scratching), result in words ([2]; 3% w/v topical, all pruritogens of Tables 1 to 5): significantly inhibited | Counts of scratching (Mean) ([2]; pruritogen Compound 48/80 3 μg/50 μL intradermal, n = 15): 521 beats/30 min. | Counts of scratching (Mean) ([2]; pruritogen Substance P 300 nmol/50 μL intradermal, n = 15): 777 beats/30 min. | Counts of scratching (Mean) ([2]; pruritogen U-46619 10 nmol/50 μL intradermal, n = 15): 1069 beats/30 min. | Counts of scratching (Mean) ([2]; pruritogen histamine 300 nmol/50 μL intradermal, n = 11): 365 beats/30 min. | Counts of scratching (Mean) ([2]; pruritogen serotonin 100 nmol/50 μL intradermal, n = 10): 841 beats/30 min. | Counts of scratching (Mean ± standard error) ([3]; 7th day, BALB/c male mouse): 931 ± 135 (**) beats/2 hr. | Counts of scratching (Mean ± standard error) ([3]; 9th day): 664 ± 99 (**) beats/2 hr. | Counts of scratching (Mean ± standard error) ([3]; 11th day): 577 ± 77 (*) beats/2 hr. | Counts of scratching (Mean ± standard error) ([3]; 14th day): 863 ± 122 (**) beats/2 hr. | inhibitory effect on the counts of scratching (antipruritic effect), result in words ([3]; 16th day): inhibitory effect on the counts of scratching | Counts of scratching (Mean ± standard error) ([3]; 16th day): 959 ± 166 (*) beats/2 hr. | Antipruritic activity (ratio of inhibition rate on scratching behavior to that of Compound A) ([4]; 3% w/v in acetone 50 μL topical 1 h before histamine 300 nmol/50 μL, ICR female mice, counts for 30 minutes): 100% | antipruritic effect in histamine-induced scratching model, result in words ([4]; 3% w/v topical, histamine 300 nmol/50 μL): remarkable antipruritic effect | IC50 [5]: 3 nM | Spontaneous locomotor activity (Mean) ([6]; 0.3% w/v in acetone 50 μL topical): 5814 counts/30 min. | Spontaneous locomotor activity (Mean) ([6]; 1% w/v in acetone 50 μL topical): 5779 counts/30 min. | Spontaneous locomotor activity (Mean) ([6]; 3% w/v in acetone 50 μL topical): 6260 counts/30 min. | spontaneous locomotor activity lowering effect at a dose producing antipruritic effect, result in words ([6]; Compound A 3% w/v, cipamfylline 0.3% w/v): did not show spontaneous locomotor activity lowering effect
